Experimental data: PubChem BioAssay AID1963430 (Molecular Pharmacology Branch, DTP, NCI, 2024)

System: 521955-158-R2-J5-PDC complex spheroid growth, % test/control
Test: Anticancer human tumor 521955-158-R2-J5-PDC patient-derived pancreatic carcinoma cell line growth inhibition [Asc]
Settings: for IC50: curve of first compound; for viability, T/C: stronger effect = lower value
Procedure, shortened: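 Concentration series start at each agent's clinical Cmax, or at 10 microM when none is established, and drop in half-log steps; agents are applied alone or together to complex spheroids built with HUVEC and hMSC.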

[1] = second compound 0.01 µM, first compound 0.0316 µM
[2] = second compound 0.01 µM, first compound 0.1 µM
[3] = second compound 0.01 µM, first compound 0.316 µM
[4] = second compound 0.01 µM, first compound 1 µM
[5] = second compound 0.01 µM, first compound 3.16 µM
[6] = second compound 0.01 µM, first compound 10 µM
[7] = second compound 0.0316 µM, first compound 0.0316 µM
[8] = second compound 0.0316 µM, first compound 0.1 µM
[9] = second compound 0.0316 µM, first compound 0.316 µM
[10] = second compound 0.0316 µM, first compound 1 µM
[11] = second compound 0.0316 µM, first compound 3.16 µM
[12] = second compound 0.0316 µM, first compound 10 µM
[13] = second compound 0.1 µM, first compound 0.0316 µM
[14] = second compound 0.1 µM, first compound 0.1 µM
[15] = second compound 0.1 µM, first compound 0.316 µM
[16] = second compound 0.1 µM, first compound 1 µM
[17] = second compound 0.1 µM, first compound 3.16 µM
[18] = second compound 0.1 µM, first compound 10 µM
[19] = second compound 0.316 µM, first compound 0.0316 µM
[20] = second compound 0.316 µM, first compound 0.1 µM
[21] = second compound 0.316 µM, first compound 0.316 µM
[22] = second compound 0.316 µM, first compound 1 µM
[23] = second compound 0.316 µM, first compound 3.16 µM
[24] = second compound 0.316 µM, first compound 10 µM
[25] = second compound 1 µM, first compound 0.0316 µM
[26] = second compound 1 µM, first compound 0.1 µM
[27] = second compound 1 µM, first compound 0.316 µM
[28] = second compound 1 µM, first compound 1 µM
[29] = second compound 1 µM, first compound 3.16 µM
[30] = second compound 1 µM, first compound 10 µM
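Also: spheroids exposed to agents for 7 days before readout.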
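For viability, T/C in this document: 100% = DMSO vehicle control viability.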

Structure (SMILES): C=C(F)C(=O)N1CCN(c2nc(OCC3CCCN3C)nc3c2CCN(c2cccc4cccc(Cl)c24)C3)CC1CC#N (stereo not given) + CNC(C)C(=O)NC1CN(S(=O)(=O)c2cccc(S(=O)(=O)N3CCC4CCC(C(=O)NC(c5ccccc5)c5ccccc5)N4C(=O)C(NC(=O)C(C)NC)C3)c2)CCC2CCC(C(=O)NC(c3ccccc3)c3ccccc3)N2C1=O
- IC50 (second compound 0.01 µM): 5.38 µM
- IC50 (second compound 0.0316 µM): 5.41 µM
- IC50 (second compound 0.1 µM): 5.72 µM
- IC50 (second compound 0.316 µM): 5.6 µM
- IC50 (second compound 1 µM): 5.44 µM
- viability, T/C [1]: 87.1%
- viability, T/C [2]: 93.1%
- viability, T/C [3]: 100%
- viability, T/C [4]: 98.4%
- viability, T/C [5]: 92.6%
- viability, T/C [6]: 0.23%
- viability, T/C [7]: 100%
- viability, T/C [8]: 95.6%
- viability, T/C [9]: 81.3%
- viability, T/C [10]: 90.6%
- viability, T/C [11]: 99.7%
- viability, T/C [12]: 0.23%
- viability, T/C [13]: 111%
- viability, T/C [14]: 106%
- viability, T/C [15]: 79.8%
- viability, T/C [16]: 93.4%
- viability, T/C [17]: 98.2%
- viability, T/C [18]: 5.12%
- viability, T/C [19]: 119%
- viability, T/C [20]: 103%
- viability, T/C [21]: 84%
- viability, T/C [22]: 91.1%
- viability, T/C [23]: 99%
- viability, T/C [24]: 0.31%
- viability, T/C [25]: 85.9%
- viability, T/C [26]: 102%
- viability, T/C [27]: 92%
- viability, T/C [28]: 94.7%
- viability, T/C [29]: 93%
- viability, T/C [30]: 1.89%

Structure (SMILES): C#Cc1c(F)ccc2cc(O)cc(-c3ncc4c(N5CC6CCC(C5)N6)nc(OCC56CCCN5CC(F)C6)nc4c3F)c12 (stereo not given) + CCN1C(C(=O)NC23CCC(C(=O)O)(CC2)CC3)C(c2cccc(Cl)c2F)C2(C(=O)Nc3cc(Cl)ccc32)C12CCCCC2
- IC50 (second compound 0.03 µM): < 0.0316 µM
- IC50 (second compound 0.0949 µM): < 0.0316 µM
- IC50 (second compound 0.3 µM): < 0.0316 µM
- IC50 (second compound 0.949 µM): < 0.0316 µM
- IC50 (second compound 3 µM): 4.99 µM
- viability, T/C (second compound 0.03 µM, first compound 0.0316 µM): 53%
- viability, T/C (second compound 0.03 µM, first compound 0.1 µM): 41.6%
- viability, T/C (second compound 0.03 µM, first compound 0.316 µM): 33.2%
- viability, T/C (second compound 0.03 µM, first compound 1 µM): 35.1%
- viability, T/C (second compound 0.03 µM, first compound 3.16 µM): 35.5%
- viability, T/C (second compound 0.03 µM, first compound 10 µM): 32%
- viability, T/C (second compound 0.0949 µM, first compound 0.0316 µM): 48.1%
- viability, T/C (second compound 0.0949 µM, first compound 0.1 µM): 39.8%
- viability, T/C (second compound 0.0949 µM, first compound 0.316 µM): 44.4%
- viability, T/C (second compound 0.0949 µM, first compound 1 µM): 38%
- viability, T/C (second compound 0.0949 µM, first compound 3.16 µM): 41.7%
- viability, T/C (second compound 0.0949 µM, first compound 10 µM): 43.9%
- viability, T/C (second compound 0.3 µM, first compound 0.0316 µM): 45.9%
- viability, T/C (second compound 0.3 µM, first compound 0.1 µM): 44%
- viability, T/C (second compound 0.3 µM, first compound 0.316 µM): 39.9%
- viability, T/C (second compound 0.3 µM, first compound 1 µM): 40.4%
- viability, T/C (second compound 0.3 µM, first compound 3.16 µM): 42.9%
- viability, T/C (second compound 0.3 µM, first compound 10 µM): 39.2%
- viability, T/C (second compound 0.949 µM, first compound 0.0316 µM): 42.7%
- viability, T/C (second compound 0.949 µM, first compound 0.1 µM): 50.6%
- viability, T/C (second compound 0.949 µM, first compound 0.316 µM): 56.3%
- viability, T/C (second compound 0.949 µM, first compound 1 µM): 41.1%
- viability, T/C (second compound 0.949 µM, first compound 3.16 µM): 54.8%
- viability, T/C (second compound 0.949 µM, first compound 10 µM): 42.4%
- viability, T/C (second compound 3 µM, first compound 0.0316 µM): 70.1%
- viability, T/C (second compound 3 µM, first compound 0.1 µM): 68.9%
- viability, T/C (second compound 3 µM, first compound 0.316 µM): 66%
- viability, T/C (second compound 3 µM, first compound 1 µM): 59.1%
- viability, T/C (second compound 3 µM, first compound 3.16 µM): 55.1%
- viability, T/C (second compound 3 µM, first compound 10 µM): 43.8%

Structure (SMILES): C=CC(=O)N1CCN(c2nc(=O)n(-c3c(C)ccnc3C(C)C)c3nc(-c4c(O)cccc4F)c(F)cc23)C(C)C1 (stereo not given) + CNC(C)C(=O)NC1CN(S(=O)(=O)c2cccc(S(=O)(=O)N3CCC4CCC(C(=O)NC(c5ccccc5)c5ccccc5)N4C(=O)C(NC(=O)C(C)NC)C3)c2)CCC2CCC(C(=O)NC(c3ccccc3)c3ccccc3)N2C1=O
- IC50 (second compound 0.01 µM): > 10 µM
- IC50 (second compound 0.0316 µM): > 10 µM
- IC50 (second compound 0.1 µM): > 10 µM
- IC50 (second compound 0.316 µM): > 10 µM
- IC50 (second compound 1 µM): > 10 µM
- viability, T/C [1]: 91.1%
- viability, T/C [2]: 105%
- viability, T/C [3]: 111%
- viability, T/C [4]: 118%
- viability, T/C [5]: 119%
- viability, T/C [6]: 88.2%
- viability, T/C [7]: 108%
- viability, T/C [8]: 93.1%
- viability, T/C [9]: 103%
- viability, T/C [10]: 94.8%
- viability, T/C [11]: 115%
- viability, T/C [12]: 96.7%
- viability, T/C [13]: 91.8%
- viability, T/C [14]: 111%
- viability, T/C [15]: 105%
- viability, T/C [16]: 119%
- viability, T/C [17]: 97.4%
- viability, T/C [18]: 89.1%
- viability, T/C [19]: 104%
- viability, T/C [20]: 100%
- viability, T/C [21]: 97.3%
- viability, T/C [22]: 98.2%
- viability, T/C [23]: 106%
- viability, T/C [24]: 95.2%
- viability, T/C [25]: 115%
- viability, T/C [26]: 98.3%
- viability, T/C [27]: 102%
- viability, T/C [28]: 109%
- viability, T/C [29]: 113%
- viability, T/C [30]: 88.3%

Structure (SMILES): CCN1CCN(Cc2ccc(Nc3ncc(F)c(-c4cc(F)c5nc(C)n(C(C)C)c5c4)n3)nc2)CC1 + Cc1c(S(C)(=O)=O)c(-c2cc(F)cc(N3CCN(c4ccc(NS(=O)(=O)c5ccc(NC(CCN6CCC(C(=O)OCCCP(=O)(O)O)CC6)CSc6ccccc6)c(S(=O)(=O)C(F)(F)F)c5)cc4)CC3)c2)c(-c2ccc(Cl)cc2)n1C(C)C
- IC50 (second compound 0.1 µM): 0.00316 µM
- IC50 (second compound 0.316 µM): 0.00316 µM
- IC50 (second compound 1 µM): > 1 µM
- IC50 (second compound 3.16 µM): > 1 µM
- IC50 (second compound 10 µM): > 1 µM
- viability, T/C (second compound 0.1 µM, first compound 0.00316 µM): 86.2%
- viability, T/C (second compound 0.1 µM, first compound 0.01 µM): 34.5%
- viability, T/C [13]: 42.2%
- viability, T/C [14]: 48.3%
- viability, T/C [15]: 73%
- viability, T/C [16]: 87.6%
- viability, T/C (second compound 0.316 µM, first compound 0.00316 µM): 69%
- viability, T/C (second compound 0.316 µM, first compound 0.01 µM): 61%
- viability, T/C [19]: 41.4%
- viability, T/C [20]: 46.5%
- viability, T/C [21]: 77.7%
- viability, T/C [22]: 92.8%
- viability, T/C (second compound 1 µM, first compound 0.00316 µM): 77.5%
- viability, T/C (second compound 1 µM, first compound 0.01 µM): 56.5%
- viability, T/C [25]: 59.6%
- viability, T/C [26]: 50.7%
- viability, T/C [27]: 65.6%
- viability, T/C [28]: 114%
- viability, T/C (second compound 3.16 µM, first compound 0.00316 µM): 58%
- viability, T/C (second compound 3.16 µM, first compound 0.01 µM): 50.1%
- viability, T/C (second compound 3.16 µM, first compound 0.0316 µM): 43.8%
- viability, T/C (second compound 3.16 µM, first compound 0.1 µM): 61.4%
- viability, T/C (second compound 3.16 µM, first compound 0.316 µM): 74.3%
- viability, T/C (second compound 3.16 µM, first compound 1 µM): 88.4%
- viability, T/C (second compound 10 µM, first compound 0.00316 µM): 171%
- viability, T/C (second compound 10 µM, first compound 0.01 µM): 111%
- viability, T/C (second compound 10 µM, first compound 0.0316 µM): 120%
- viability, T/C (second compound 10 µM, first compound 0.1 µM): 179%
- viability, T/C (second compound 10 µM, first compound 0.316 µM): 162%
- viability, T/C (second compound 10 µM, first compound 1 µM): 142%
